Patent US20050158374A1, “Compositions and dosage forms for enhanced absorption of metformin” (priority 2003, published 2005)
In brackets after ≈: the same amount, converted by molar mass. Counter-ions that a name gives are not always drawn. Like-named read-outs stand apart in the source and are kept apart here.

Assays:
[1] = cited from earlier work
[2] = intravenous administration of metformin HCl to rats; details: for Metformin base plasma concentration, Average / Metformin base plasma concentration, Rat2 / Metformin base plasma concentration, Rat3 / Metformin base plasma concentration, Rat1: 2 mg/kg intravenously
[3] = for macroscopic evaluation of the G.I. tract for signs of irritation: end of oral gavage study; for time of plasma concentration maximum after treatment: rat, in vivo, po
in vivo [4] = details: rat, po, 40 mg/kg
in vivo [5] = details: male, Sprague-Dawley, rat, plasma, other: intracolonic bolus, ligated colon, 10 mg/rat
in vivo [6] = details: Sprague-Dawley, rat, plasma, iv, 2 mg/kg
[7] = in vivo colonic absorption using flushed ligated colonic model in rats; details: 10 mg/rat intubated into ligated colon
[8] = in vivo
[9] = conductivity of complexes in aqueous solutions; details: aqueous solution pH≅5.8, 23° C.

In the case of CCCCCCCCCCCC(=O)O [Lauric (12), lauric acid], the “Solubility in Acetic acid” value ([1]; 20° C.) is listed as 818 mg/mL (≈ 4080 mM), the “Solubility in Acetone” value ([1]; 20° C.) is listed as 605 mg/mL (≈ 3020 mM) and the “Solubility in Acetonitrile” value ([1]; 20° C.) is listed as 76 mg/mL (≈ 379 mM). For the same molecule, the “Solubility in Benzene” value ([1]; 20° C.) was 936 mg/mL (≈ 4670 mM), the “Solubility in Chloroform” value ([1]; 20° C.) was 830 mg/mL (≈ 4140 mM) and the “Solubility in Cyclohexanne” value ([1]; 20° C.) was 680 mg/mL (≈ 3390 mM). For the same molecule, the “Solubility in Ethanol 95%” value ([1]; 20° C.) was 912 mg/mL (≈ 4550 mM) and the “Solubility in Methanol” value ([1]; 20° C.) was 1200 mg/mL (≈ 5990 mM).

For CN(C)C(=N)N=C(N)N [Metformin HCl, metformin hydrochloride], the “Metformin base plasma concentration, Average” value ([2]; Time 0 h) was 0.0 ng/mL, the “Metformin base plasma concentration, Rat2” value ([2]; Time 0 h) was 0 ng/mL and the “Metformin base plasma concentration, Rat3” value ([2]; Time 0 h) was 0 ng/mL. The “Metformin base plasma concentration, Average” value ([2]; Time 2 min) was 2483.3 ng/mL, the “Metformin base plasma concentration, Rat1” value ([2]; Time 2 min) was 1430 ng/mL and the “Metformin base plasma concentration, Rat2” value ([2]; Time 2 min) was 2370 ng/mL. The “Metformin base plasma concentration, Rat3” value ([2]; Time 2 min) was 3650 ng/mL, the “Metformin base plasma concentration, Average” value ([2]; Time 0.5 h) was 229.2 ng/mL and the “Metformin base plasma concentration, Rat1” value ([2]; Time 0.5 h) was 262 ng/mL. For the same molecule, the “Metformin base plasma concentration, Rat2” value ([2]; Time 0.5 h) was 331 ng/mL, the “Metformin base plasma concentration, Rat3” value ([2]; Time 0.5 h) was 94.7 ng/mL and the “Metformin base plasma concentration, Average” value ([2]; Time 1 h) was 30.4 ng/mL. The “Metformin base plasma concentration, Rat3” value ([2]; Time 1 h) was 25.2 ng/mL, the “Metformin base plasma concentration, Average” value ([2]; Time 1.5 h) was 22.1 ng/mL and the “Metformin base plasma concentration, Rat1” value ([2]; Time 1.5 h) was 0 ng/mL. The “Metformin base plasma concentration, Rat2” value ([2]; Time 1.5 h) was 66.3 ng/mL, the “Metformin base plasma concentration, Rat3” value ([2]; Time 1.5 h) was 0 ng/mL and the “Metformin base plasma concentration, Average” value ([2]; Time 2 h) was 0.0 ng/mL. The “Metformin base plasma concentration, Rat2” value ([2]; Time 2 h) was 0 ng/mL, the “Metformin base plasma concentration, Rat3” value ([2]; Time 2 h) was 0 ng/mL and the “Metformin base plasma concentration, Average” value ([2]; Time 3 h) was 0.0 ng/mL. The “Metformin base plasma concentration, Rat2” value ([2]; Time 3 h) was 0 ng/mL, the “Metformin base plasma concentration, Rat3” value ([2]; Time 3 h) was 0 ng/mL and the “Area Under the Curve (0-4 hrs, based on 1 mg base/rat)” value ([2]; i.v.) was 692.5 ng · h/mL-mg. For the same molecule, the “macroscopic evaluation of the G.I. tract for signs of irritation” value [3] was “No irritation”, the “time of plasma concentration maximum after treatment” value [3] was “about 1 hour” and the Cmax (in vivo [4]) was ~4080 ng/mL. It also gave a concentration at 0 h (in vivo [5]) of 0 ng/mL, a concentration at 0 h (in vivo [6]) of 0 ng/mL and a concentration at 1 h (in vivo [6]) of 35.5 ng/mL. The concentration at 2 h (in vivo [6]) was 0 ng/mL, the concentration at 3 h (in vivo [6]) was 0 ng/mL and the “Area Under the Curve (0-4 hrs, based on 1 mg base/rat)” value [7] was 29.2 ng · h/mL-mg.

In the case of CCCCCCCCCC(=O)O.CN(C)C(=N)N=C(N)N [Metformin caprate], the “Area Under the Curve (0-4 hrs, based on 1 mg base/rat)” value [8] is reported as 548.0 ng · h/mL-mg.

For CCCCCCCCCCCC(=O)O.CN(C)C(=N)N=C(N)N [Metformin laurate], the “macroscopic evaluation of the G.I. tract for signs of irritation” value [3] was “No irritation”, the “time of plasma concentration maximum after treatment” value [3] was “about 1 hour” and the “Area Under the Curve (0-4 hrs, based on 1 mg base/rat)” value [8] was 674.5 ng · h/mL-mg.

For CCCCCCCCCCCCCC(=O)O [myristic (14), myristic acid], the “Solubility in Acetic acid” value [1] is listed as 102 mg/mL (≈ 447 mM), the “Solubility in Acetone” value [1] is listed as 159 mg/mL (≈ 696 mM) and the “Solubility in Acetonitrile” value [1] is listed as 18 mg/mL (≈ 78.8 mM). The “Solubility in Benzene” value [1] was 292 mg/mL (≈ 1280 mM), the “Solubility in Chloroform” value [1] was 325 mg/mL (≈ 1420 mM) and the “Solubility in Cyclohexanne” value [1] was 215 mg/mL (≈ 941 mM). The “Solubility in Ethanol 95%” value [1] was 189 mg/mL (≈ 828 mM) and the “Solubility in Methanol” value [1] was 173 mg/mL (≈ 758 mM).

Molecule Metformin oleate has a Conductivity ([9]; metformin concentration 5 mM) of 136 μS/cm, a Conductivity ([9]; metformin concentration 10 mM) of 235 μS/cm and a Conductivity ([9]; metformin concentration 20 mM) of 405 μS/cm. For the same molecule, the “Area Under the Curve (0-4 hrs, based on 1 mg base/rat)” value [7] was 408.3 ng · h/mL-mg.
